Test results reported in patent US9957214B2, “Multifunctional radical quenchers” (ARIZONA BOARD OF REGENTS ON BEHALF OF ARIZONA STATE …, priority 2012, dated 2018).

What was measured:
[1] = tested on: FRDA lymphocytes; assay: Suppression of lipid peroxidation (C11-BODIPY581/591, FACS) in FRDA lymphocytes treated with diethyl maleate; format: cell-based; conditions: Lymphocyte, DEM, read-out: Scavenging activity (%), suppression of lipid peroxidation
Text: Several methods for assaying lipid peroxidation in vitro have been developed (Kuypers et al. (1987) Biochim Biophys Acta. 25, 266-274; Pap et al. (1999) FEBS Lett. 453, 278-282; Drummen et al. (2002) Free RadicBiol Med. 33, 473-490). Almost all of these methods are based on inhibition of free radical-induced oxidation reactions. A widely used fluorescence assay for lipid peroxidation uses lipid soluble cis-parinaric acid as a probe. cis-parinaric acid loses its fluorescence (λexc/em: 320/432 nm) upon interaction with peroxyl radicals and retains its fluorescence in the presence of radical quenchers. cis-parinaric acid is, however, air sensitive, photolabile and absorbs light in the UV region of the spectrum (at ˜320 nm). […] In practical terms, the results obtained using cis-parinaric as a probe for lipid peroxidation are confounded due to the overlapping of the compounds emission spectra with the cis-parinaric emission spectrum. C11-BODIPY^581/591 Oxidation to Measure Lipid Peroxidation To overcome the problem of spectral overlap using cis-parinaric acid, a fluorescence assay for lipid peroxidation using a lipophilic probe belonging to the BODIPY class of fluorescent dyes was used C11-BODIPY^581/591 (4,4-difluoro-5(4-phenyl-1,3-butadienyl)-4-bora-3a, 4a-diaza-s-indacene-3-propionic acid) fluorescent shifts from red to green upon oxidation. C11-BODIPY^581/591 (Molecular Probes, Eugene, Oreg., USA) stock solution concentrations were determined by measuring the absorption of C11-BODIPY^581/591 at 582 nm using a molar extinction coefficient of 140,000 mol^−1 cm^−1 (R. P. Haugland, (1999) Handbook of Fluorescent Probes and Research Chemicals, Molecular Probes, Inc., Eugene, Oreg.). The lipid peroxidation inducer 2,2′-Azobis (2-amidino-propane dihydrochloride) (AAPH) and the antioxidant compound α-tocopherol (α-TOH) were obtained from Sigma (St. Louis, Mo., USA). Phospholipid bilayers were prepared from 1-stearoyl-2-oleoyl-phosphatidylcholine (SOPC) and 1,2-dilinoleoyl-phosphatidylcholine (DLPC) and were purchased from Avanti® polar lipids, Inc., (Alabaster, Ala., USA). Preparation of Liposomes Phosphotidylcholine (PC) liposomes were prepared as described before (Guey-Shuang et al. (1982) Lipids. 17, 403-413). Briefly, DLPC (25 mg) were dissolved in chloroform and the solvent was removed by nitrogen evaporation (˜2 hours) to give a thin film of PC in a round bottom flask. The lipid film was hydrated with 50 mL of 10 mM Tris-HCl (pH 7.4), 100 mM KCl, shaken and sonicated for 15 seconds. The liposomes obtained were filtered several times through […] membrane filter. Measurement of C11-BODIPY^581/591 Oxidation C11-BODIPY^581/591 was incorporated into liposomes and oxidized by peroxyl radicals derived from the decomposition of AAPH in the presence and absence of compounds. Liposomes (1 mg/mL), suspended in 10 mM Tris-HCl (pH 7.4), 100 mM KCl, were transferred to a quartz 1 mL cuvette and placed in a Varian Cary Eclipse fluorometer (Varian, Cary, N.C.) equipped with a thermostatted cuvette holder at 40° C. Liposomes were pre-incubated for 10 min with 200 nM C11-BODIPY^581/591 to allow their incorporation into the lipid phase of the liposomes. After the addition of AAPH (10 mM) the decay of the red fluorescence was followed at λ exc=570 nm, λ em=600 nm. Relative fluorescence units were normalized to 100% intensity. Results obtained were verified by repeating experiments N=3 independent experiments. Measurement of C11-BODIPY^581/591 Oxidation in Cell Culture A quantitative FACS analysis of lipid peroxidation of FRDA lymphocytes, which had been treated with diethyl maleate following incubation in the presence and absence of the test compounds, was measured as described (Khdour et al. (2011) Pharmaceut. Res. 28, 2896-2909). Briefly, FRDA lymphocytes (5×10^5 cell/mL) were treated with the test compounds at final concentrations of 5 and 10 μM and incubated at 37° C. for 16 h in a humidified atmosphere containing 5% CO2 in air. […]

[2] = tested on: Friedreich's ataxia lymphoblast cell line GM15850; assay: Cytoprotection (trypan blue exclusion assay) of DEM-treated FRDA lymphocytes; format: cell-based; conditions: Homo sapiens, GM15850, DEM alone 18 ± 10% viability, read-out: Cytoprotection (cell viability, % of untreated control)
Procedure, shortened: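 GM15850 FRDA lymphoblasts at 5×10^5 cells/mL pre-incubated with test compounds for 17 h at 37 °C, then exposed to 5 mM DEM to deplete GSH. Viability by 0.4% trypan blue exclusion, ≥500 cells counted per group, expressed as % of non-DEM control; means±S.E.M., n=3.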

[3] = tested on: NADH oxidase (complexes I, III and IV); assay: NADH oxidase activity (complexes I, III and IV) in submitochondrial particles; format: biochemical, bovine

Structure (SMILES) | inhibition at 1 µM ([1]; 1 μM) [%] | inhibition at 5 µM [1] [%] | inhibition at 10 µM [1] [%] | viability at 0.1 µM ([2]; 0.1 μM) [%] | viability at 0.5 µM [2] [%] | viability at 2.5 µM [2] [%] | viability at 5 µM [2] [%] | NADH oxidase activity (Complex I, III, IV) % ([3]; 1 μM) | NADH oxidase activity (Complex I, III, IV) % ([3]; 5 μM) | NADH oxidase activity (Complex I, III, IV) % ([3]; 10 μM) [%] | viability at 1 µM [2] [%]
COC1=C2CCCCCCCCCCCCCCCNC(=CC1=O)C2=O [Compound 40] | 29 ± 4.7 | 72 | 83 | 36 ± 4.3 | 69 ± 2.3 | 83 | 92 ± 3.5 | 95 ± 3^ % | 85 ± 1^ % | 70 ± 1 | –
CCCCCCCCCCCCCC1=C(OC)C(=O)C=C(NCCCC(=O)OCCCCCC)C1=O [Compound 18, Hexyl 4-(4-methoxy-3,6-dioxo-5-tridecylcyclohexa-1,4-dienylamino)butanoate] | – | 81 ± 1.6 | 98 | – | – | – | 90 ± 2 | 54 ± 5.0% | 27 ± 3.0% | – | –
CCCCCCCCCCCCCC1=C(OC)C(=O)C(C)=C(NCCCC(=O)OCCCC)C1=O [Compound 46, Butyl 4-(4-methoxy-2-methyl-3,6-dioxo-5-tridecylcyclohexa-1,4-dienylamino)butanoate] | – | 60 ± 1 | 70 ± 3 | – | – | – | 95 ± 3 | 86 ± 2^ % | 84 ± 4^ % | 68 ± 1 | 63 ± 4
CCCCCCCCCCCCCC1=C(OC)C(=O)C(C)=C(NCCCC(=O)OCCCCCC)C1=O [Compound 49, Hexyl 4-(4-methoxy-2-methyl-3,6-dioxo-5-tridecylcyclohexa-1,4-dienylamino)butanoate] | – | 8 ± 3 | 13 ± 3 | – | – | – | 87 ± 4 | 74 ± 2^ % | 83 ± 2^ % | 74 ± 2 | 16 ± 4
CCCCCCCCCCCCCC1=C(NCCCC(=O)OCCCCCC)C(=O)C(C)=C(NCCCC(=O)OCCCCCC)C1=O [Compound 50, 2,5-bis(hexyl 4-aminobutanoate)-3-methyl-6-tridecylcyclohexa-2,5-diene-1,4-dione] | – | 18 ± 1 | 23 ± 4 | – | – | – | 91 ± 3 | 85 ± 1^ % | 78 ± 6^ % | 70 ± 3 | 11 ± 2
CCCCCCCCCCCCCC1=C(OC)C(=O)C(C)=C(NCCCC(=O)OC(C)(C)C)C1=O [Compound 43, tert-butyl 4-(4-methoxy-2-methyl-3,6-dioxo-5-tridecylcyclohexa-1,4-dienylamino)butanoate] | – | 61 ± 4 | 75 ± 2 | – | – | – | 91 ± 6 | 87 ± 2^ % | 85 ± 1^ % | 80 ± 1 | 67 ± 5
CCCCCCCCCCCCCC1=C(OC)C(=O)C=C(NCCCC(=O)OC(C)(C)C)C1=O [Compound 7, tert-butyl 4-(4-methoxy-3,6-dioxo-5-tridecylcyclohexa-1,4-dienylamino)butanoate] | – | 72 ± 1.8 | 86 | – | 80 | 84 ± 5 | 93 ± 4 | 84 ± 1.0% | 77 ± 4.0% | – | 80
